# From patent US8158809B2 (priority 2003, dated 2012)
# System: HCT116
# Assay: Cell colony formation assay
# Assay type: cell-based
# Conditions: 72 hours with drug, colonies counted after 7 days
# Experimental: This example provides directions for growing cells and testing compounds of the invention for their effect on the growth of the cells. All cells were purchased from DCTDC Tumor Repository, NCI, NIH.
# The cells were incubated in a CO2 incubator at 37° C. for 5 hours for attachment to the bottom of Petri dishes. Drugs were made fresh in medium at ten times the final concentration, and then 0.3 ml of this stock solution was added to the 2.7 ml of medium in the dish. The cells were then incubated with drugs for 72 hours at 37° C. At the end of the incubation the drug-containing media were decanted, the dishes were rinsed with 4 ml of Hank's Balance Salt Solution (HBSS), 5 ml of fresh medium was added, and the dishes were returned to the incubator for colony formation. The cell colonies were counted using colony counter after incubation for 7 days for HCT116 cells and PC-3 cells and 8 days for VM46 cells, respectively. Cell survival (%) was calculated, as shown in Table I below for HCT 116 cells.
Structure (SMILES),In Vitro Efficacy: Survival (%) of HCT116 (100 nM) [%],In Vitro Efficacy: Survival (%) of HCT116 (1000 nM) [%],In Vitro Efficacy: Survival (%) of HCT116 (10 nM) [%]
"COc1cc(C2c3cc4c(cc3C(OC(=O)c3ccc5c(c3)C(=O)c3ccccc3C5=O)C3COC(=O)C23)OCO4)cc(OC)c1OC (stereo not drawn) [Compound 000121, Podophyllotoxin-4-O-ester of anthraquinone-2-carboxylic acid]",94.03,0,–
"COc1cc([C@@H]2c3cc4c(cc3[C@H](OC(=O)c3cccc(NC(=O)CCl)c3)[C@H]3COC(=O)[C@H]23)OCO4)cc(OC)c1OC [Compound 000124, Podophyllotoxin-4-O-ester of 3-chloroacetamidobenzoic acid]",0,0,83.22
"COc1cc(C2c3cc4c(cc3C(OC(=O)c3cc(-c5ccccc5)nc5ccccc35)C3COC(=O)C23)OCO4)cc(OC)c1OC (stereo not drawn) [Compound 000125, Podophyllotoxin-4-O-ester of 2-phenyl-4-quinolinecarboxylic acid]",90.34,0,–
"COc1cc(C2c3cc4c(cc3C(OC(=O)CCC(=O)O)C3COC(=O)C23)OCO4)cc(OC)c1OC (stereo not drawn) [Compound 000201, Podophyllotoxin-4-O-ester of hemisuccinic acid]",93.24,0,–
"COc1cc(C2c3cc4c(cc3C(OC(=O)c3ccc([N+](=O)[O-])o3)C3COC(=O)C23)OCO4)cc(OC)c1OC (stereo not drawn) [Compound 000202, Podophyllotoxin-4-O-ester of 5-nitro-2-furoic acid]",0,0,81.68
"COc1cc([C@@H]2c3cc4c(cc3[C@H](OC(=O)[C@@H]3CCCN3C(=O)OC(C)(C)C)[C@H]3COC(=O)[C@H]23)OCO4)cc(OC)c1OC [Compound 000203, Podophyllotoxin-4-O-ester of N-(tert-Butoxycarbonyl)-L-proline]",89.76,0,–
"COc1cc([C@@H]2c3cc4c(cc3[C@H](OC(=O)c3cc(=O)c5ccccc5o3)[C@H]3COC(=O)[C@H]23)OCO4)cc(OC)c1OC [Compound 000215, Podophyllotoxin-4-O-ester of chromone-2-carboxylic acid]",0,0,92.46
"COc1cc(C2c3cc4c(cc3C(OC(=O)COC3CC(C)CCC3C(C)C)C3COC(=O)C23)OCO4)cc(OC)c1OC (stereo not drawn) [Compound 000218, Podophyllotoxin-4-O-ester of (+)-menthoxyethanoic acid]",44.28,0,–
"COc1cc([C@@H]2c3cc4c(cc3[C@H](OC(=O)C(C)ON=C3c5cc([N+](=O)[O-])cc([N+](=O)[O-])c5-c5c3cc([N+](=O)[O-])cc5[N+](=O)[O-])[C@H]3COC(=O)[C@H]23)OCO4)cc(OC)c1OC (stereo partly drawn) [Compound 000222, Podophyllotoxin-4-O-ester of (+)-2-(2,4,5,7-tetranitro-9-fluorenylideaminooxy)-propionic acid]",1.46,0,100
"COc1cc([C@@H]2c3cc4c(cc3[C@H](OC(=O)C3Cc5c([nH]c6ccccc56)CN3C(=O)OC(C)(C)C)[C@H]3COC(=O)[C@H]23)OCO4)cc(OC)c1OC (stereo partly drawn) [Compound 000301, Podophyllotoxin-4-O-ester of N—BOC-1,2,3,4-Tetrahydro-β-carboline-3-carboxylic acid]",84.08,0,–
"COc1cc(C2c3cc4c(cc3C(OC(=O)C3Cc5ccccc5CN3C(=O)OC(C)(C)C)C3COC(=O)C23)OCO4)cc(OC)c1OC (stereo not drawn) [Compound 000302, Podophyllotoxin-4-O-ester of N—BOC-1,2,3,4-Tetrahydroisoquinoline-3-carboxylic acid]",100,0,–
"COc1cc(C2c3cc4c(cc3C(OC(=O)C(NC(=O)OC(C)(C)C)C(C)c3ccccc3)C3COC(=O)C23)OCO4)cc(OC)c1OC [Compound 000307, Podophyllotoxin-4-O-ester of N—BOC-erythro-D-β-Methylphenylalanine]",93.49,0,–
"COc1cc([C@@H]2c3cc4c(cc3[C@H](OC(=O)COc3ccc(Cl)cc3C)[C@H]3COC(=O)[C@H]23)OCO4)cc(OC)c1OC [Compound 000317, Podophyllotoxin-4-O-ester of 4-chloro-2-methylphenoxyacetic acid]",0,0,99.49
"COc1cc([C@@H]2c3cc4c(cc3[C@H](OC(=O)COc3ccc(Br)cc3)[C@H]3COC(=O)[C@H]23)OCO4)cc(OC)c1OC [Compound 000320, Podophyllotoxin-4-O-ester of 4-bromophenoxyacetic acid]",0,0,100
"COc1cc(C2c3cc4c(cc3C(OC(=O)COc3ccc(C=O)cc3)C3COC(=O)C23)OCO4)cc(OC)c1OC (stereo not drawn) [Compound 000323, Podophyllotoxin-4-O-ester of 4-formylphenoxyacetic acid]",0,0,90.86
"COc1cc([C@@H]2c3cc4c(cc3[C@H](OC(=O)COc3ccc(Cl)cc3Cl)[C@H]3COC(=O)[C@H]23)OCO4)cc(OC)c1OC [Compound 000324, Podophyllotoxin-4-O-ester of 2,4-dichlorophenoxyacetic acid]",0,0,100
"COc1ccc(OCC(=O)OC2c3cc4c(cc3C(c3cc(OC)c(OC)c(OC)c3)C3C(=O)OCC23)OCO4)cc1 (stereo not drawn) [Compound 000329, Podophyllotoxin-4-O-ester of 4-methoxyphenoxyacetic acid]",0,0,100
"COc1cc([C@@H]2c3cc4c(cc3[C@H](OC(=O)c3cncc(C(=O)O[C@H]5c6cc7c(cc6[C@@H](c6cc(OC)c(OC)c(OC)c6)[C@H]6C(=O)OC[C@@H]65)OCO7)c3)[C@H]3COC(=O)[C@H]23)OCO4)cc(OC)c1OC [Compound 000330, Bis(Podophyllotoxin-4-O-ester) of 3,5-Pyridinedicarboxylic acid]",0,0,100
"COc1cc([C@@H]2c3cc4c(cc3[C@H](OC(=O)c3cc(C(=O)O[C@H]5c6cc7c(cc6[C@@H](c6cc(OC)c(OC)c(OC)c6)[C@H]6C(=O)OC[C@@H]65)OCO7)cc([N+](=O)[O-])c3)[C@H]3COC(=O)[C@H]23)OCO4)cc(OC)c1OC [Compound 000331, Bis(Podophyllotoxin-4-O-ester) of 5-nitroisophthalic acid]",62.56,0,–
"COc1cc([C@@H]2c3cc4c(cc3[C@H](OC(=O)COc3ccc5c(C)c(Cl)c(=O)oc5c3)[C@H]3COC(=O)[C@H]23)OCO4)cc(OC)c1OC [Compound 000405, Podophyllotoxin-4-O-ester of 7-(carboxymethoxy)-3-chloro-4-methylcoumarin]",0,0,90.45
"COc1cc(C2c3cc4c(cc3C(OC(=O)COc3ccc(I)cc3)C3COC(=O)C23)OCO4)cc(OC)c1OC (stereo not drawn) [Compound 000614, Podophyllotoxin-4-O-ester of 4-iodophenoxyacetic acid]",0,0,84.99
"COc1cc([C@@H]2c3cc4c(cc3[C@H](OC(=O)COc3ccc(F)cc3)[C@H]3COC(=O)[C@H]23)OCO4)cc(OC)c1OC [Compound 000615, Podophyllotoxin-4-O-ester of 4-fluorophenoxyacetic acid]",0,0,100
"COc1cc(C2c3cc4c(cc3C(OC(=O)COc3cccc(Cl)c3)C3COC(=O)C23)OCO4)cc(OC)c1OC (stereo not drawn) [Compound 000622, Podophyllotoxin-4-O-ester of 3-chlorophenoxyacetic acid]",0,0,98.48
